This note sets out measurements from ChEMBL document CHEMBL1201862, “PubChem BioAssay data set” (2004).

Structures are written as SMILES. Activity calls are given as the source filed them. Bounds are passed on as bounds.

A short description of assay [1]: cytotoxicity in HEK-293T cells, dose response, cytotoxicity control for BCR NF-kB inhibitor project, luminescence, B-cell screen hits (AID 489021).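 Also: HEK-293T cells carrying an NF-kB luciferase reporter; cells exposed to compound for about 14 hours before viability readout.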 The format is functional, cell-based.
Assay [2] is described as follows: inhibitors of SNCA 5'UTR-driven reporter translation, confirmation, H4 neuroglioma cells, luminescence (AID 1988). The format is functional, cell-based.
Assay [3] can be described thus: Luminescence Cell-Based Dose Response HTS to Identify Inhibitors of 5'UTR Stem-Loop Driven Prion Protein mRNA Translation in H4 Neuroglioblastoma Cells. [Related pubchem assays: 1827 (Project Summary), 1813 (Primary HTS)]. The format is functional.
Assay [4] in a line: inhibitors of firefly luciferase expression or activity, dose response, H4 neuroglioma cells, luminescence (AID 1990). The format is functional, cell-based.
Assay [5] deals with Peroxisome proliferator-activated receptor gamma/Nuclear receptor coactivator 1 (Homo sapiens, UniProt P37231). The format is functional.
The target of assay [6] is Peroxisome proliferator-activated receptor gamma/Nuclear receptor coactivator 2 (Homo sapiens, UniProt P37231). In kind it is functional.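 Also: agonist potency for raising coactivator recruitment to the receptor.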
Sequence of Peroxisome proliferator-activated receptor gamma/Nuclear receptor coactivator 2 (P37231 whole entry): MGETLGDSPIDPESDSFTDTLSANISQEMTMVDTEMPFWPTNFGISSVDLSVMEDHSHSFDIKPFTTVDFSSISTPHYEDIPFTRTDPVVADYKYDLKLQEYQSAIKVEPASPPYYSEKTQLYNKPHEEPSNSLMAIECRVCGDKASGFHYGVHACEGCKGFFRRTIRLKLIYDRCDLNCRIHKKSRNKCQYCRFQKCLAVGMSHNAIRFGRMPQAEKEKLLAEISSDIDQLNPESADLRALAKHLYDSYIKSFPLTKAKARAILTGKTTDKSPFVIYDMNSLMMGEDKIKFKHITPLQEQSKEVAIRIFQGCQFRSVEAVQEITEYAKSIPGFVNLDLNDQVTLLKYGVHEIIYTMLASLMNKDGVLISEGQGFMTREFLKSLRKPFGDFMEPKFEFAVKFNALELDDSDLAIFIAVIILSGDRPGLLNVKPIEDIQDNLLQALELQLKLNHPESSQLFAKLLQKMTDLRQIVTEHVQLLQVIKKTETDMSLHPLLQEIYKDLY
Sequence of Peroxisome proliferator-activated receptor gamma/Nuclear receptor coactivator 2 (Q15596 whole entry, further chain): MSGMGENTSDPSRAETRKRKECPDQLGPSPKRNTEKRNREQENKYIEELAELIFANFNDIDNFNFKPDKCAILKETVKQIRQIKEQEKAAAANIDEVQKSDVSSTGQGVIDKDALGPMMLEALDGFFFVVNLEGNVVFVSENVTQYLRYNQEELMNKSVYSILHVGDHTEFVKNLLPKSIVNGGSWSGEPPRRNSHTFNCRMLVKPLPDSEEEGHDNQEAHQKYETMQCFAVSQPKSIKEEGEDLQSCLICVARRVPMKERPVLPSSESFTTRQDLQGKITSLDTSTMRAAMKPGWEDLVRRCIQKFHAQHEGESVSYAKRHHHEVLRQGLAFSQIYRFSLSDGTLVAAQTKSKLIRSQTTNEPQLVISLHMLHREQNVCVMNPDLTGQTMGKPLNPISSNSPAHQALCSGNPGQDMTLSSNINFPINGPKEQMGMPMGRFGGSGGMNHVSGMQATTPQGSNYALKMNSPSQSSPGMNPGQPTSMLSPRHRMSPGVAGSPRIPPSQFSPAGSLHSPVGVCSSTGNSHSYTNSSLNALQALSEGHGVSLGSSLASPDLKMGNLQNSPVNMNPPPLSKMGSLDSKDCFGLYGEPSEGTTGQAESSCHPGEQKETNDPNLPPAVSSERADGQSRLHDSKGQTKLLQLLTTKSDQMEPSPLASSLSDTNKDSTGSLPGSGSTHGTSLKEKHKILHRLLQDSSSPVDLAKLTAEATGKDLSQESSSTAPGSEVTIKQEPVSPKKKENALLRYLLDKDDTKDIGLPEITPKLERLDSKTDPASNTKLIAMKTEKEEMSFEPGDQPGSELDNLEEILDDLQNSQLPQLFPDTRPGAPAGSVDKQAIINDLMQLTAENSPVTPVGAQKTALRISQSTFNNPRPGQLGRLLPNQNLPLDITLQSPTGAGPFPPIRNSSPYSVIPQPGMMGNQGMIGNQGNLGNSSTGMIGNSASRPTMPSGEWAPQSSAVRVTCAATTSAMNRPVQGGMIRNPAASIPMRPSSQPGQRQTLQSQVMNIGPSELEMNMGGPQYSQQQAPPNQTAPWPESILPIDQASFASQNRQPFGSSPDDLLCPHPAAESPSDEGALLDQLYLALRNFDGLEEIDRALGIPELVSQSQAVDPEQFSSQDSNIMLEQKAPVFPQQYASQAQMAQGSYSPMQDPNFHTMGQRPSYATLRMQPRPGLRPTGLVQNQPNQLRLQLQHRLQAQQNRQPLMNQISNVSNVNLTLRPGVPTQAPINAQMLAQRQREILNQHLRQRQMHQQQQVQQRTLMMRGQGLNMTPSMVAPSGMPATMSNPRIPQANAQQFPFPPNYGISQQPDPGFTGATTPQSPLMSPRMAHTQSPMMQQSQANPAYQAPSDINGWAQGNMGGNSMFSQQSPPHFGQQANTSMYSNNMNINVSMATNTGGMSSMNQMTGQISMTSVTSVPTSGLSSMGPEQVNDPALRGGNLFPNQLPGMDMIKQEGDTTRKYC
For assay [7], the target named is Peroxisome proliferator-activated receptor gamma/Nuclear receptor coactivator 3 (Homo sapiens, UniProt P37231). In kind it is functional.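 Also: agonist potency for raising coactivator recruitment to the receptor.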
Sequence of Peroxisome proliferator-activated receptor gamma/Nuclear receptor coactivator 3 (P37231 whole entry): as the sequence (P37231 whole entry) above
Sequence of Peroxisome proliferator-activated receptor gamma/Nuclear receptor coactivator 3 (Q9Y6Q9 whole entry, further chain): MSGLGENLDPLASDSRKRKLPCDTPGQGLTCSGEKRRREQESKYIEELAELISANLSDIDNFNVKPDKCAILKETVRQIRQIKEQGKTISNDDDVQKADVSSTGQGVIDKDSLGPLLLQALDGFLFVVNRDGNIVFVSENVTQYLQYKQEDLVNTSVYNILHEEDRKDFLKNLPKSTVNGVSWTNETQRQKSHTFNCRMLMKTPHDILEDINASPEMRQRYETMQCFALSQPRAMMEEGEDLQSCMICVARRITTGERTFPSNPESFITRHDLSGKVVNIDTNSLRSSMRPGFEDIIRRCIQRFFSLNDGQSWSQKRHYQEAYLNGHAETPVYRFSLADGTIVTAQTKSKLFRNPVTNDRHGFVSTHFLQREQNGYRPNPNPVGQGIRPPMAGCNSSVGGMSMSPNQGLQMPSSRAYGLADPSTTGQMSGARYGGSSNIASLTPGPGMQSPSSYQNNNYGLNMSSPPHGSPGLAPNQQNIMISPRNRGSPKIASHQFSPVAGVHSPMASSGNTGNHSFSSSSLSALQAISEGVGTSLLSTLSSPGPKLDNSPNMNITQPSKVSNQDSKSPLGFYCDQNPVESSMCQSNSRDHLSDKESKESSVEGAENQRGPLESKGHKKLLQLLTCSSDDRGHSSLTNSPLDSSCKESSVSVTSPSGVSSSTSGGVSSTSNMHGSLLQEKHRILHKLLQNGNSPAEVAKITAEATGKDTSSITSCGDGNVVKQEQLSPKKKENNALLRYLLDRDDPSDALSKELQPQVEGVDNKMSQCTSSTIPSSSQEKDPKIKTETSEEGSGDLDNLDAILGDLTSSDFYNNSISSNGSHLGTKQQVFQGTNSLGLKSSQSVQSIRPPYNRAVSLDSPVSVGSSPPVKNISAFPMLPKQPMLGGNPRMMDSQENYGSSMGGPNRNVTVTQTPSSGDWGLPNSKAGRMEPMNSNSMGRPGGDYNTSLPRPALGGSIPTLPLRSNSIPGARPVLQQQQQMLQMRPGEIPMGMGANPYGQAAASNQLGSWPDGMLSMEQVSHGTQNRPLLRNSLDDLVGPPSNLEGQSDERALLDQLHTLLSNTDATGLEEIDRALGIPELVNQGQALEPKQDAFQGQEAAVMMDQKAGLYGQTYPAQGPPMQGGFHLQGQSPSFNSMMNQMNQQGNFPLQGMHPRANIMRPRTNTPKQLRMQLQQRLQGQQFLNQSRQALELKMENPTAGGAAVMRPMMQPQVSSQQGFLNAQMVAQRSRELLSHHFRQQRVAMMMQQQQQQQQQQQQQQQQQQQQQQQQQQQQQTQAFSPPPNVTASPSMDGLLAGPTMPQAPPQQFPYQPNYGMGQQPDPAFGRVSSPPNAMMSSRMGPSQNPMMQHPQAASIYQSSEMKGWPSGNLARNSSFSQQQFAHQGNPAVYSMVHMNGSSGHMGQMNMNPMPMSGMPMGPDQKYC
The target in assay [8] is T1, Short transient receptor potential channel 4 (Mus musculus, UniProt Q9QUQ5).
T1 sequence (Q9QUQ5 whole entry): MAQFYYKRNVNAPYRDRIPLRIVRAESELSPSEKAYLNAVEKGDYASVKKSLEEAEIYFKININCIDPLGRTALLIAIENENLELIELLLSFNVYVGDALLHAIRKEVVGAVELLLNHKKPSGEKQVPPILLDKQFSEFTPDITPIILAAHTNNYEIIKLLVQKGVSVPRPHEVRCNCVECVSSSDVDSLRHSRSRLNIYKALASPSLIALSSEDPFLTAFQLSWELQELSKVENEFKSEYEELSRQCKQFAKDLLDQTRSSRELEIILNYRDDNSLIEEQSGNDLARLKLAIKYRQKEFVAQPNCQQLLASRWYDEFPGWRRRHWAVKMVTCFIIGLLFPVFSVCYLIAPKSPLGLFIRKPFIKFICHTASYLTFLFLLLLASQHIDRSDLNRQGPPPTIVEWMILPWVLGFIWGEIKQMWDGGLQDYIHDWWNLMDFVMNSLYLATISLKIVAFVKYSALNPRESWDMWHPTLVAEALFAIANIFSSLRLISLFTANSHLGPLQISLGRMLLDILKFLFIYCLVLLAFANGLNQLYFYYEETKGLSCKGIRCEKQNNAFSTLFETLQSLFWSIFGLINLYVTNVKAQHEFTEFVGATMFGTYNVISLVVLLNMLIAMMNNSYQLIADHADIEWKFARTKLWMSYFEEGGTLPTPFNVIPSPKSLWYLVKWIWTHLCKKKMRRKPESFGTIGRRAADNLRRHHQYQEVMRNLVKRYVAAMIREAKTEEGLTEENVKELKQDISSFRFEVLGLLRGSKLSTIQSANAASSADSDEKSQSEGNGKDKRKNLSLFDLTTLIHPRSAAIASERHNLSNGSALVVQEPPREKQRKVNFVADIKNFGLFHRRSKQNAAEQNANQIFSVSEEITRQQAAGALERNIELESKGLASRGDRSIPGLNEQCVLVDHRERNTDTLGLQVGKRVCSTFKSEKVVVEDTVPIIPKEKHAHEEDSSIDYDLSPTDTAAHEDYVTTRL
Kind of assay: mouse TRPC4 channel inhibitors, dose response, cell-based, HEK293 TRPC4/mu-opioid, Fluo-4 calcium (AID 434942).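 Also: potency of inhibitors blocking the TRPC4 calcium response.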 In kind it is functional.

Assay [9] concerns the target T2, Calpain-2 catalytic subunit (Sus scrofa, UniProt P43367).
T2 sequence (P43367 whole entry): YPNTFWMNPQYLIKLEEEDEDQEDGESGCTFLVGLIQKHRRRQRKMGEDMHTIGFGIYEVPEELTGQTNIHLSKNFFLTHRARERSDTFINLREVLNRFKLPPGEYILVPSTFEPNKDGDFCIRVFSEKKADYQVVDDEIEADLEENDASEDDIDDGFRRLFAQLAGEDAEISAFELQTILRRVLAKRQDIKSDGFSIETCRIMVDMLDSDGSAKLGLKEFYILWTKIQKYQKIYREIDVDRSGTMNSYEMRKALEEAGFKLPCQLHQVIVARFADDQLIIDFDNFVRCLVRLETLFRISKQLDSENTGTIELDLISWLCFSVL
Kind of assay: pig calpain II inhibitor potency, dose response, biochemical, fluorogenic peptide substrate (AID 1420). In kind it is functional.

Assay [10] is described as follows: A cytotoxicity screen of small molecule inhibitors of the PhoP region in Salmonella typhi identified in the primary screen. [Related pubchem assays: 1850, 1864, 1985 ]. The format is functional.
Assay [11] in a line: THP-1 cell cytotoxicity, dose response, cytotoxicity control for Vif-APOBEC3G degradation inhibitor project, THP-1 cells (AID 1117359). The format is functional. As to conditions: Human immunodeficiency virus 1, THP-1.
The target of assay [12] is T3, Rac GTPase-activating protein 1 (Homo sapiens, UniProt Q9H0H5).
T3 sequence (Q9H0H5 whole entry): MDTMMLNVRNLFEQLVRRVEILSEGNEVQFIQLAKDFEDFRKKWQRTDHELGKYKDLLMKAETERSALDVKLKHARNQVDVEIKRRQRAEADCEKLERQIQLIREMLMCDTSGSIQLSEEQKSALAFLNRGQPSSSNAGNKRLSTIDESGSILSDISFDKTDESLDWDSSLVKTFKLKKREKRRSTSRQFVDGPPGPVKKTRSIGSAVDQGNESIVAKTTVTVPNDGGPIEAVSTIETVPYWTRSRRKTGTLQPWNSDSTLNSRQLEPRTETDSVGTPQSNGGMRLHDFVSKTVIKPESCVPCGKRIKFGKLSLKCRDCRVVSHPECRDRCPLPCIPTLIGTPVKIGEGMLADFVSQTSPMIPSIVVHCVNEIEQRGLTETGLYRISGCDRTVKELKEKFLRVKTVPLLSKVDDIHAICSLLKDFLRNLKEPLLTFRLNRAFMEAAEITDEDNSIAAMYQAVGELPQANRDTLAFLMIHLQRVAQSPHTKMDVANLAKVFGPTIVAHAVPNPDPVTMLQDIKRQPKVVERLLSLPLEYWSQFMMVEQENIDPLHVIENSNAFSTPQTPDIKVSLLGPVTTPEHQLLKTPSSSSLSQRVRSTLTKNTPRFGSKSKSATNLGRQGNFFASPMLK
Kind of assay: MgcRacGAP GTPase-activating activity inhibitors, confirmation, biochemical, ADP Hunter fluorescence, primary and confirmatory (AID 624330). In kind it is functional.

A short description of assay [13]: cytotoxicity toward NIH3T3 fibroblasts, dose response, counter-screen, cell-based, ATP luminescence, mouse fibroblasts (AID 2010).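 Also: cells exposed to compound for about 90 hours before reading.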 In kind it is functional.
The nature of assay [14]: inhibitors of intracellular T. cruzi replication, confirmation, NIH3T3 host cells, beta-gal luminescence (AID 2044).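 Also: intracellular parasites grown in NIH/3T3 mouse fibroblasts as host cells; luminescent beta-galactosidase reporter signal from transgenic T. cruzi replicating inside host cells; inhibitors lower the luminescence signal.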 In kind it is functional, cell-based.
A further assay addresses Cytochrome P450 2C19 (Homo sapiens, UniProt P33261). Kind of assay: Cytochrome panel assay with activity outcomes. Panel member name: p450-cyp2c19 Compounds with AC50 equal or less than 10 uM are considered active. The format is functional. As to conditions: read-out: AC50.
Another assay addresses Cytochrome P450 3A4 (Homo sapiens, UniProt P08684).
For assay [15], the system named is BJ. Kind of assay: cytotoxicity toward BJ-TERT fibroblasts, dose response, cell-based, RAS-independent, luminescence (AID 1933). The format is functional. As to conditions: Homo sapiens.
Assay [16] deals with BJ. Kind of assay: cytotoxicity toward BJ-TERT-LT-ST fibroblasts, dose response, cell-based, RAS-independent, luminescence (AID 1935).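 Also: BJ fibroblasts immortalized with TERT plus LT and ST oncogenes.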 As to conditions: Homo sapiens. The format is functional.
Assay [17] can be described thus: cytotoxicity toward DRD oncogenic fibroblasts, dose response, cell-based, non-viral oncogenic, luminescence (AID 1934). The format is functional. As to conditions: Homo sapiens.
Assay [18] concerns BJ. Kind of assay: cells. The format is functional, cell-based. As to conditions: Homo sapiens.
Assay [19] in a line: cytotoxicity in HEK-293T cells, dose response, cytotoxicity control for TCR NF-kB inhibitor project, luminescence, T-cell screen hits (AID 489026).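 Also: cells exposed to compound about 14 hours before the viability readout.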 In kind it is functional, cell-based.
Assay [20] is described as follows: microbe, parasite or virus in culture. The format is functional. As to conditions: Mycobacterium tuberculosis.
Assay [21] in a line: P. falciparum Dd2 growth inhibitors, dose response, SYBR Green, cherry-picked samples (AID 1159567). The format is functional, cell-based.
Assay [22] is described as follows: HepG2 cell cytotoxicity, dose response, cytotoxicity control, cherry-picked samples (AID 1159577). The format is functional, cell-based.

Sequence of Cytochrome P450 2C19 (P33261 whole entry): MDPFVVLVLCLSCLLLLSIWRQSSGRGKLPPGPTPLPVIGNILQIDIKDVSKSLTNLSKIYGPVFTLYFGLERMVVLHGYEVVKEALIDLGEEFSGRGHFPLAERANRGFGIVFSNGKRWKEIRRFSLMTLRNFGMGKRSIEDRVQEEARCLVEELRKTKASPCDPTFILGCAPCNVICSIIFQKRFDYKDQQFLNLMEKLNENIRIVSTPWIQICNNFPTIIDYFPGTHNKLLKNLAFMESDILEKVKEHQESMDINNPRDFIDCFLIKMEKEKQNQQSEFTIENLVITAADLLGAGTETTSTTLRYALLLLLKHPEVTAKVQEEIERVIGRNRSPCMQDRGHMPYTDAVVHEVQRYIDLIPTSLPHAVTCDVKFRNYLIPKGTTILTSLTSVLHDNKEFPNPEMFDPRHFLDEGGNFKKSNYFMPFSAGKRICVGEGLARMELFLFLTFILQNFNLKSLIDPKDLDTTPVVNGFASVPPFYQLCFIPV
Sequence of Cytochrome P450 3A4 (P08684 whole entry): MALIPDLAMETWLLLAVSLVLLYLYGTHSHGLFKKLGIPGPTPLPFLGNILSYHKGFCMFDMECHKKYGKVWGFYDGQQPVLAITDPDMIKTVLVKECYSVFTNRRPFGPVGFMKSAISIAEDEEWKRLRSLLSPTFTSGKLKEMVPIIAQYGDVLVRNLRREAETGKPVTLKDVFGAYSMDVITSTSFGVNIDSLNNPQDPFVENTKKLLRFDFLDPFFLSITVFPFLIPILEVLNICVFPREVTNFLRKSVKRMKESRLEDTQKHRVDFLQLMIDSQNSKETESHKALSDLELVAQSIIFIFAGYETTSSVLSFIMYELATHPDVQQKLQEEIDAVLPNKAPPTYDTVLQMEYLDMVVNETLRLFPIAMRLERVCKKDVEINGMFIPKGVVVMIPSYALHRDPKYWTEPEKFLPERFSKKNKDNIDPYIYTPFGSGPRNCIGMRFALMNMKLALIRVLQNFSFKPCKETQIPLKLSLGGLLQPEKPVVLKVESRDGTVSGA

The IC50 is the concentration that inhibits the measured activity by half. Broadly, the EC50 is the concentration that produces a half-maximal response. Turning to `Cc1ccc(/C=C2\SC(=S)N(CCCC(=O)Nc3cc(C)on3)C2=O)cc1`, the IC50 in assay [1] was > 80 µM (inactive). Further, the EC50 was 14.6 µM (active) in assay [2], 51.7 µM (active) in assay [3] and 15.3 µM (active) in [4].

For `CCCCC(CC)c1nnc(NC(=O)c2cccs2)s1` (centres undefined), the concentration giving a half-maximal response (EC50) is > 79.4 µM (not active) in [5], > 79.4 µM (not active) in [6], > 79.4 µM (not active) in assay [7] and 5.31 µM (active) in assay [8]. In addition, the half-inhibitory concentration (IC50) in assay [9] is reported as 8.06 µM (not active).

As to `CCC(=O)N(Cc1cc2cc(OC)ccc2nc1O)c1ccc(C)cc1C`, the EC50 in assay [10] was > 50 µM (active).

As to `N=c1sc2c(n1Cc1ccccc1)CCCC2`, the EC50 in assay [10] is > 50 µM (active).

Take `CCOCCCNc1ccc(N2C(=O)C3CCCCC3C2=O)cc1[N+](=O)[O-]` (centres undefined): in assay [9], the IC50 was 9.18 µM (active).

`O=C1/C(=C/c2ccco2)SC(=S)N1C1CCS(=O)(=O)C1` (centres undefined): the CC50 in [11] is > 40 µM (active).

As for `Cc1nc2nc(COc3ccccc3)nn2c(C)c1Cl`, in [10], the EC50 was > 50 µM (active).

Turning to `COC(=O)c1sccc1N=C(S)NCc1ccc(Cl)cc1`, the EC50 in assay [10] was > 50 µM (active).

`COc1ccc2cc(C(=O)Nc3ccc(O)cc3)sc(=O)c2c1OC`: the IC50 in [12] was 24.8 µM (active). Besides, the CC50 in [11] was 25 µM (active).

For orientation: AC50 means the midpoint of the concentration-response curve, whichever way the signal moves. Regarding `Cn1/c(=N\C(=O)CCl)sc2ccccc21`, the EC50 in [13] was < 6 µM (inconclusive); in assay [14], 0.973 µM (active). In addition, the IC50 in assay [1] was > 80 µM (inactive). Also, the values for the AC50 on Cytochrome P450 2C19 and at Cytochrome P450 3A4 were 20 µM (inconclusive) and 15.8 µM (inconclusive), respectively.

On to `S=C(Nc1ccccc1)Nc1cc(Cl)ccc1Oc1ccccc1`, for which the EC50 in assay [8] is 4.73 µM (active).

Consider `C=CCSc1nnc2n(-c3ccccc3OC)c(=O)c3c4c(sc3n12)CCC4`, for which the half-maximal effective concentration (EC50) in assay [8] was 4.73 µM (active).

In the case of `O=C(COc1ccc(F)cc1)c1c(O)cc(O)cc1O`, the EC50 in assay [8] was 3.35 µM (active).

As for `Cc1cc(C)c(NC(=O)COC(=O)Cc2ccsc2)c(C)c1`, the half-maximal inhibitory concentration (IC50) in assay [9] is listed as > 50 µM (not active).

With `N=c1ccn2c(n1)O[C@H]1[C@H](O)[C@@H](CO)O[C@H]12`, the IC50 in assay [1] was > 80 µM (inactive).

As to `CCCc1nc(SCC(=O)c2ccccc2)c2c(=O)n(C)c(=O)n(C)c2n1`, the IC50 in assay [9] is 7.89 µM (active).

On to `CC(CCc1ccccc1)NC(=O)COC(=O)c1ccc(NC(=O)CC#N)cc1` (centres undefined), for which the EC50 with BJ [15] is > 150 µM (not active); with BJ [16], > 150 µM (inconclusive); in assay [17] it was > 150 µM (not active); in the assay on BJ [18] it was > 150 µM (not active).

For `CC(=O)Nc1ccc(S(=O)(=O)N2c3ccc(F)cc3CCC2C)cc1` (centres undefined), the IC50 in [19] was > 80 µM (inactive). The EC50 in the assay with BJ [15] was 13.5 µM (active); in the assay on BJ [16] it was 16 µM (active); in assay [17], 16 µM (active); in the assay with BJ [18], 92.3 µM (active).

For the compound `Cc1c(CN2CCC(CO)(Cc3cccc(C(F)(F)F)c3)CC2)c2ccccc2n1C`, the 50% effective concentration (EC50) is > 60 µM (not active) in assay [13] and 0.969 µM (active) in [14]. In addition, the CC50 was 9.2 µM (active) in assay [11] and 18.1 µM (active) in assay [20].

`Cc1cccc(-c2ccc([C@H]3[C@H]4CN(CCC(F)(F)F)CCCCN4[C@H]3CO)cc2)c1`: the AC50 is 1.08 µM (active) in assay [21] and 9.1 µM (active) in [22].

In the case of `CNC(=O)CSc1nc2nn(-c3ccccc3)c(=O)c-2c2n1CCCCC2`, in assay [1], the IC50 is > 80 µM (inactive).
